Results on 18 compounds are retold here after patent US10703756B2, “Pyrrolo[2,3-D]pyrimidinyl, pyrrolo[2,3-B]pyrazinyl, pyrrolo[2,3-B]pyridinyl acrylamides and epoxides thereof” (Pfizer Inc., priority 2015, dated 2020).

Some results are limits rather than exact numbers.

Assay [1] relates to IL-15 induced P-STAT5 in human PBMC. The assay is described as follows: PBMC IL-15 Induced P-STAT5. It counts as cell-based. As to conditions: human PBMC, IL-15 final 41 ng/mL; read-out: PBMC IL15_pSTAT5_IC50. The gist of the method: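 Flow cytometry gated on total lymphocytes measured STAT5 staining (Alexa Fluor 647 antibody, overnight, 4 °C) in fixed, methanol-permeabilised human PBMC. Cells had received compound for 15 min at 37 °C (0.2% DMSO final), followed by 41 ng/mL final human IL-15 for 15 min.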

For assay [2], the target named is T1, JAK3 enzyme (Homo sapiens, UniProt P52333).
T1 sequence (P52333 1-1124): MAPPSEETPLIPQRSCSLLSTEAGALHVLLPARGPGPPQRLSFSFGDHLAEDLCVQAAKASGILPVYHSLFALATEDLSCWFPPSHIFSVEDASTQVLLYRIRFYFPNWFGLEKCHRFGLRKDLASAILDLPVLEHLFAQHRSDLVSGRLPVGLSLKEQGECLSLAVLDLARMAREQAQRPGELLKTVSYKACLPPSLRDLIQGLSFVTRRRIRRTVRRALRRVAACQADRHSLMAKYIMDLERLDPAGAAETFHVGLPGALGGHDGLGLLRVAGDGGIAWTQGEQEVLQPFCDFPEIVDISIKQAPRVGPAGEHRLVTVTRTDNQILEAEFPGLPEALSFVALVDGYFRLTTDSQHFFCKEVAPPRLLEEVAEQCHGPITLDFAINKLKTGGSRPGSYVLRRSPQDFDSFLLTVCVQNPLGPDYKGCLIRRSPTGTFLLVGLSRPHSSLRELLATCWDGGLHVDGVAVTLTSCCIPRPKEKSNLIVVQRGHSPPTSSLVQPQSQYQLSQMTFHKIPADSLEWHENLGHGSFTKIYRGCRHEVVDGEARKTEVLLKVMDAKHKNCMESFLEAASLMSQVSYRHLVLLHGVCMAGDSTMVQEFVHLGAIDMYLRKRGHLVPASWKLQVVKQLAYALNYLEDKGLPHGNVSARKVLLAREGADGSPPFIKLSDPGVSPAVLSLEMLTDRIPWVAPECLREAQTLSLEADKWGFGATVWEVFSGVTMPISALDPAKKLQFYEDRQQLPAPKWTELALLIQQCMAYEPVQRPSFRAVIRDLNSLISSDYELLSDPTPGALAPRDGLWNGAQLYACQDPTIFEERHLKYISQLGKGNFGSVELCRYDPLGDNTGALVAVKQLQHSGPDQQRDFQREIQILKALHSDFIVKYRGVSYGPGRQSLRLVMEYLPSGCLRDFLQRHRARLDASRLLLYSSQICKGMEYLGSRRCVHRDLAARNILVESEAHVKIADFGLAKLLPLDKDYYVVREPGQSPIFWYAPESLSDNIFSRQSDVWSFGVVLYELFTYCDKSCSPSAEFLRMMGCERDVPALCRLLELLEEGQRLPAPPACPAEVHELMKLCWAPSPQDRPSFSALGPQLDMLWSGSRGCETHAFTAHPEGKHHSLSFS
In words: JAK Caliper Enzyme Assay at 1 mM ATP. In kind it is biochemical. The gist of the method: (§1)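 Read-out: microfluidic mobility-shift separation quantifying substrate peptide versus phosphopeptide. Compounds were tested as 11-point half-log dilutions, top 600 μM in DMSO before transfer. Enzyme level and reaction time were tuned for each prep so conversion stayed at 20%-30%.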

Assay [3] deals with T1, JAK3 enzyme. In words: JAK Caliper Enzyme Assay at 4 μM ATP. In kind it is biochemical. Summed up:
as §1

In the case of `C=CC(=O)N1CC[C@H](Nc2cnc3[nH]cc(C(=O)NC[C@H](C)CC(F)(F)F)c3n2)[C@H](OC)C1` [Example 294, 2-[((3R,4S)-1-acryloyl-3-methoxypiperidin-4-yl)amino]-N-([2R]-4,4,4-trifluoro-2-methylbutyl)-5H-pyrrolo[2,3-b]pyrazine-7-carboxamide], the IC50 in assay [1] came out at 575 nM; at JAK3 enzyme [2], 62 nM; against JAK3 enzyme [3], 1.16 nM.
The corresponding values for `C=CC(=O)N1C[C@H](Nc2cnc3[nH]cc(C(=O)NCCOC)c3n2)[C@](C)(C#N)C1` [Example 245, 2-{[(3R,4R)-1-acryloyl-4-cyano-4-methylpyrrolidin-3-yl]amino}-N-(2-methoxyethyl)-5H-pyrrolo[2,3-b]pyrazine-7-carboxamide] are above 10000 nM, 297 nM and 1.77 nM.
For `C=CC(=O)N1CCN(c2cnc3[nH]cc(C(=O)NCC4CC(F)(F)C4)c3n2)C[C@@H]1CC(C)C` [Example 274, 2-[(3S)-4-acryloyl-3-(2-methylpropyl)piperazin-1-yl]-N-[(3,3-difluorocyclobutyl)methyl]-5H-pyrrolo[2,3-b]pyrazine-7-carboxamide], in that order: 507 nM, 157 nM and 0.984 nM.
`C=CC(=O)N1CCC(Oc2cnc3[nH]cc(C(=O)NC4CC(F)(F)C4)c3n2)CC1` [Example 212, 2-[(1-acryloylpiperidin-4-yl)oxy]-N-(3,3-difluorocyclobutyl)-5H-pyrrolo[2,3-b]pyrazine-7-carboxamide]: the IC50 is 1340 nM in assay [1], 328 nM against JAK3 enzyme [2] and 0.922 nM at JAK3 enzyme [3].
As to `C=CC(=O)N1CCC(Oc2cnc3[nH]cc(C(=O)N[C@@H](C(C)C)[C@H](O)C(F)(F)F)c3n2)CC1` [Example 217, 2-[(1-acryloylpiperidin-4-yl)Oxy]-N-[(2S,3S)-1,1,1-trifluoro-2-hydroxy-4-methylpentan-3-yl]-5H-pyrrolo[2,3-b]pyrazine-7-carboxamide], the IC50 in assay [1] was 2090 nM; against JAK3 enzyme [2], 272 nM; at JAK3 enzyme [3] it was 1.97 nM.
The corresponding values for `C=CC(=O)N1CCN(c2cnc3[nH]cc(C(=O)NCC(C)(C)C)c3n2)CC1(C)C` [Example 285, 2-(4-acryloyl-3,3-dimethylpiperazin-1-yl)-N-(2,2-dimethylpropyl)-5H-pyrrolo[2,3-b]pyrazine-7-carboxamide] are 1790 nM, 515 nM and 4.05 nM.
For `C=CC(=O)N1CCC(Oc2cnc3[nH]cc(C(=O)NCC(C)(F)F)c3n2)CC1` [Example 215, 2-[(1-acryloylpiperidin-4-yl)oxy]-N-(2,2-difluoropropyl)-5H-pyrrolo[2,3-b]pyrazine-7-carboxamide], in that order: 619 nM, 97 nM and 0.782 nM.
The corresponding values for `C=CC(=O)N1CCN(c2cnc3[nH]cc(C(=O)NCC(F)(F)F)c3n2)C[C@@H]1CC(C)C` [Example 311, 2-[(3S)-4-acryloyl-3-(2-methylpropyl)piperazin-1-yl]-N-(2,2,2-trifluoroethyl)-5H-pyrrolo[2,3-b]pyrazine-7-carboxamide] are 586 nM, 223 nM and 1.78 nM.
As for `C=CC(=O)N1CCN(c2cnc3[nH]cc(C(=O)NC(CC)(CC)CO)c3n2)CC1(C)C` [Example 163, 2-(4-acryloyl-3,3-dimethylpiperazin-1-yl)-N-[3-(hydroxymethyl)pentan-3-yl] 5H-pyrrolo[2,3-b]pyrazine-7-carboxamide], the IC50 in assay [1] stood at 409 nM; against JAK3 enzyme [2], 160 nM; against JAK3 enzyme [3], 1.24 nM.
With `C=CC(=O)N1CC[C@H](Nc2cnc3[nH]cc(C(=O)N[C@H](C)COC)c3n2)C[C@@H]1C` (stereo in doubt) [Example 354, 2-(((2S,4S)-1-Acryloyl-2-methylpiperidin-4-yl)amino)-N—((R)-1-methoxypropan-2-yl)-5H-pyrrolo[2,3-b]pyrazine-7-carboxamide], the IC50 came out at 4520 nM in assay [1], 261 nM on JAK3 enzyme [2] and 3.41 nM against JAK3 enzyme [3].
The corresponding values for `C=CC(=O)N1CC[C@@H](Nc2cnc3[nH]cc(C(=O)NCC)c3n2)[C@H](OC)C1` (single isomer, unassigned) [Example 26] are 1930 nM, 99 nM and 1.65 nM.
For the compound `C=CC(=O)N1CCN(c2cnc3[nH]cc(C(=O)N[C@H](C)CC#N)c3n2)CC1(C)C` [Example 152, 2-(4-acryloyl-3,3-dimethylpiperazin-1-yl)-N-[(2R)-1-cyanopropan-2-yl]-5H-pyrrolo[2,3-b]pyrazine-7-carboxamide], the IC50 in assay [1] was determined as 510 nM; at JAK3 enzyme [2] it was 256 nM; on JAK3 enzyme [3], 1.97 nM.
The corresponding values for `C=CC(=O)N1CCC(Oc2cnc3[nH]cc(C(=O)NC(CC)C4(O)CCC4)c3n2)CC1` (racemic) [Example 213, Racemic-2-[(1-acryloylpiperidin-4-yl)oxy]-N-[1-(1-hydroxycyclobutyl)propyl]-5H-pyrrolo[2,3-b]pyrazine-7-carboxamide] are 1720 nM, 343 nM and 3.07 nM.
For `C=CC(=O)N1CCC(Oc2cnc3[nH]cc(C(=O)NCCCC#N)c3n2)CC1` [Example 218, 2-[(1-acryloylpiperidin-4-yl)oxy]-N-(3-cyanopropyl)-5H-pyrrolo[2,3-b]pyrazine-7-carboxamide], in that order: 1200 nM, 105 nM and 0.627 nM.
The corresponding values for `C=CC(=O)N1CCN(c2cnc3[nH]cc(C(=O)NC(CC)COC)c3n2)CC1(C)C` (racemic) [Example 141, Racemic-2-(4-acryloyl-3,3-dimethylpiperazin-1-yl)-N-(1-methoxybutan-2-yl)-5H-pyrrolo[2,3-b]pyrazine-7-carboxamide] are 347 nM, 103 nM and 0.794 nM.
Turning to `C=CC(=O)N1CCC(Oc2cnc3[nH]cc(C(=O)NCC4(O)CCCC4)c3n2)CC1` (racemic) [Example 206, Racemic-2-[(1-acryloylpiperidin-4-yl)oxy]-N-[(1-hydroxycyclopentyl)methyl]-5H-pyrrolo[2,3-b]pyrazine-7-carboxamide], the IC50 in assay [1] turned out to be 3100 nM; against JAK3 enzyme [2] it was 325 nM; against JAK3 enzyme [3], 2.79 nM.
The corresponding values for `C=CC(=O)N1CCC(Nc2cnc3[nH]cc(C(=O)NCc4cnn(-c5cccc(F)c5)c4)c3n2)CC1` [Example 192, 2-[(1-acryloylpiperidin-4-yl)amino]-N-{[1-(3-fluorophenyl)-1H-pyrazol-4-yl]methyl}-5H-pyrrolo[2,3-b]pyrazine-7-carboxamide] are 907 nM, 29 nM and 0.627 nM.
On to `C=CC(=O)N1CCN(c2cnc3[nH]cc(C(=O)NCC(C)(F)F)c3n2)CC1(C)C` [Example 275, 2-(4-acryloyl-3,3-dimethylpiperazin-1-yl)-N-(2,2-difluoropropyl)-5H-pyrrolo[2,3-b]pyrazine-7-carboxamide], for which the IC50 in assay [1] came to 1030 nM; against JAK3 enzyme [2], 418 nM; at JAK3 enzyme [3], 3.19 nM.
